Data reported in patent publication US20210244814A1, “COMBINATION OF METFORMIN AND CYCLOPHOSPHAMIDE AS AN ADJUVANT IN CANCER IMMUNOTHERAPY” (UNIVERSITÉ CATHOLIQUE DE LOUVAIN, priority 2018, published 2021).

Columns and labels:
[1] = system: TiRP mice (genetically engineered mouse melanoma model); experiment: Tumor growth, tumor weight and survival of TiRP mice with or without ACT; assay type: in vivo; settings: for tumor response to the immunotherapy (tumor growth) / tumor growth and tumor weight 14 days after ACT / tumor growth in the presence of ACT: TiRP mice with ACT; for tumor response to the immunotherapy (tumor growth): up to 22 days after ACT, FIG. 6A; for tumor growth and tumor weight 14 days after ACT: CTX 100 mg/kg the day before ACT and/or metformin 0.5 mg/ml for 14 days, FIG. 5; for tumor growth in the presence of ACT / tumor growth in absence of ACT: FIG. 7; for tumor growth in absence of ACT: TiRP mice without ACT
Source text: (§1) TiRP mice have been created by crossing Ink4a/Arf^flox/flox mice with mice carrying a transgenic construct controlled by the tyrosinase promoter and driving the expression of H-Ras^12V and Trap 1 a which encodes a MAGE-type tumor antigen P1A; the promoter is separated from the coding region by a stop cassette made of a floxed self-deleting CreER (Huijbers et al., 2006, Cancer Res 66, 3278-3286). Those mice were backcrossed to a B10.D2 background and bred to homozygosity. TCRP1A mice heterozygous for the H-2Ld/P1A35-43-specific TCR transgene were kept on the B10.D2;Rag1^−/− background (Shanker et al., 2004, J Immunol 172, 5069-5077).
(§2) A fresh solution of 4OH-Tamoxifen was prepared by dissolving 4OH-Tamoxifen (Imaginechem) in 100% ethanol and mineral oil (ratio 1:9) followed by 30-min sonication, and injected subcutaneously (2 mg/200 μl per mouse) in the neck area of gender-matched 7 weeks old TiRP mice. Tumor appearance was monitored daily and tumors were measured three times/week. Tumor volume (in mm^3) was calculated by the following formula: Volume=width^2×length×π/6. Tumor-bearing TiRP mice were randomized based on the tumor size when average volume was 500 mm^3 and treated as indicated. For cyclophosphamide (CTX, Sigma C7397) treatment, mice received an intra-peritoneal injection of CTX at 100 mg/kg or vehicle (PBS) 24 h before adoptive cell transfer. For metformin treatment, metformin (Enzo, ALX-270-432) was dissolved in mice drinking water at a concentration of 0.5 mg/ml and administered to the mice from the moment of adoptive cell transfer until the end of the experiment; the solution was replaced three times/week.
(§3) For the adoptive cell transfer (ACT), P1A-specific (TCRP1A) CD8^+ T cells were isolated from spleens and lymph nodes of TCRP1A mice using anti-mouse CD8α (Ly-2) MicroBeads (Miltenyi Biotec), and stimulated in vitro by co-culture with irradiated (10.000 rads) L1210.P1A.B7-1 cells (Gajewski et al., 1995, J Immunol 154, 5637-5648) at 1:2 ratio (0.5×10^5 CD8^+ T cells and 10^5 L1210.P1A.B7-1 cells per well in 48-well plates) in IMDM (GIBCO) containing 10% fetal bovine serum supplemented with L-arginine (0.55 mM, Merck), L-asparagine (0.24 mM, Merck), glutamine (1.5 mM, Merck), betamercaptoethanol (50 μM, Sigma), 50 Uml^−1 penicillin and […] streptomycin (Life Technologies). Four days later, TCRP1A CD8^+ T cells were purified on a Lymphoprep gradient (StemCell) and 10^7 living cells were injected intravenously in 200 μl PBS in TiRP-tumor bearing mice.
Data entry and all analyses were performed in a blinded fashion. All statistical analyses were performed using GraphPad Prism software. Statistical significance was calculated by two-tailed unpaired t-test on two experimental conditions or two-way analysis of variance (ANOVA) when repeated measures were compared, with p<0.05 considered statistically significant. Independent experiments were pooled and analyzed together whenever possible. All graphs show mean values±s.e.m.

MC38 colon carcinoma = MC38 colon carcinoma tumor rejection with anti-PD-1 antibody; assay type: in vivo, mice; settings: MC38, 16 days after treatment, associated with the PD-1 inhibitor; FIG. 9B-D
Source text: (§4) Gender and age matched […] wild-type mice were used for the experiments with checkpoint inhibitors.
(§5) For the experiments with checkpoint inhibitors, gender matched, 7-9 weeks old […] wild-type mice were subcutaneously injected with 1 million of B16F1 or MC38 tumor cells. Mice were randomized based on the tumor size one week after the injection of tumor cells (B16F1 melanoma model) or when the average tumor size was between 90 and 120 mm^3 (MC38 colon carcinoma model). Tumor-bearing mice were then treated with CTX or PBS as described above. One day after, metformin was prepared as mentioned above and added to the mice drinking water until the end of the experiment. A dose of 100 μg/mouse of anti-PD-1 antibody (clone RMP1-14, Bio-X-Cell) or RatIgG2a isotype (clone 2A3, Bio-X-Cell) was injected intraperitoneally three times (B16F1 model) or four times (MC38 model) every three or four days starting from the day after CTX or PBS treatment.

B16F1 melanoma tumors = experiment: B16F1 melanoma tumor growth with anti-PD-1 antibody or isotype control; assay type: in vivo, mice; settings: FIG. 8A; for growth of B16F1 melanoma tumors, single treatment: B6 mice
Source text: as §4, §5

[2] = system: TCRP1A CD8^+ T cells, Treg cells and PMN-MDSCs infiltrating TiRP tumors; experiment: FACS analysis of tumor-infiltrating cells in TiRP-tumor bearing mice after adoptive cell transfer (ACT); assay type: in vivo; settings: for tumor infiltration of the transferred TCRP1A CD8+ T cells / survival of the transferred TCRP1A CD8+ T cells (apoptosis, annexin V): 14 days after ACT, CTX 100 mg/kg one day before ACT and/or metformin 0.5 mg/ml drinking water; for tumor infiltration of the transferred TCRP1A CD8+ T cells: FIG. 3A; for survival of the transferred TCRP1A CD8+ T cells (apoptosis, annexin V): FIG. 3B
Source text: as §1, §2, §3
For hypoxia detection, mice received an intraperitoneal injection of pimonidazole hydrochloride at 60 mg/kg (Hypoxyprobe) 45 minutes before tumor harvesting. Tumor single cell suspension was prepared using gentleMACS Dissociator and incubating the tissue in RMPI containing 0.04% collagenase I, 0.04% collagenase II and 0.05% dispase (all from GIBCO) for 1 hour at 37° C. After passing the cell suspension through a 70 μm- and 40 μm-cell strainer, red blood cell lysis was performed (eBioscience, 00-4300-54). Tumor cell preparation was stained with the Viability dye eFluor780 (eBioscience, 1:1000) to identify dead cells during the FACS analysis, and then incubated with Mouse BD Fc Block (BD, clone 2.4G2, 1:100) in PBS supplemented with 2% FBS and 2 mM EDTA. TCRP1A CD8^+ T cells were labeled by using H-2L^d PIA tetramer-PE (1 μM, produced in-house at the Ludwig Institute for Cancer Research) and anti-CD8α BV-421 (BioLegend, 53-6.7, 1:200); for apoptosis quantification, Annexin V APC (BioLegend, 1:20) was used. Hypoxic cells were identified with the anti-pimonidazole antibody (Hypoxyprobe, HP-FITC-Mab 4.3.11.3, 1:100) after cell fixation and permeabilization according to manufacturer's instructions (eBioscience Transcription Factor Staining Buffer Set).

SMILES | tumor response to the immunotherapy (tumor growth) [1] | tumor growth and tumor weight 14 days after ACT [1] | tumor growth in the presence of ACT [1] | tumor growth in absence of ACT [1] | mice that had rejected the tumor (MC38 colon carcinoma) [%] | growth of B16F1 melanoma tumors, single treatment (B16F1 melanoma tumors) | tumor infiltration of Treg cells ([2]; 4 days after ACT, single injection of CTX 100 mg/kg one day before ACT, FIG. 2A) | tumor infiltration of PMN-MDSCs ([2]; 4 days after ACT, single injection of CTX 100 mg/kg one day before ACT, FIG. 2B) | tumor infiltration of the transferred TCRP1A CD8+ T cells [2] | survival of the transferred TCRP1A CD8+ T cells (apoptosis, annexin V) [2] | tumor response to the PD-1 inhibitor (B16F1 melanoma tumors; B16F1, associated with anti-PD-1 antibody 100 μg on day 0, 3, 7, C, D) | infiltration of TCRP1A CD8^+ T cells in the tumor ([2]; 4 days after ACT, metformin 0.5 mg/ml in drinking water from ACT, vs vehicle, FIG. 1A) | recruitment of TCRP1A CD8^+ T cells to the hypoxic regions of the tumor ([2]; 4 days after ACT, metformin 0.5 mg/ml in drinking water, pimonidazole-positive, FIG. 1B)
O=P1(N(CCCl)CCCl)NCCCO1 (stereo not drawn) [cyclophosphamide, 2-[bis(2-chloroethyl)amino]-1,3,2λ^5-oxazaphosphinan-2-one] | did induce a significant tumor response | allowed an inhibition of the tumor growth | tumor response was improved by the immunotherapy | significantly reduced tumor growth | 40 | induced per se a significant tumor response | reduced | reduced | increase | increase |  |  | 
CN(C)C(=N)N=C(N)N [metformin, 3-(diaminomethylidene)-1,1-dimethylguanidine] | did not seem to induce a significant tumor response | seemed to partially reduce tumor growth | did not inhibit tumor growth | did not inhibit tumor growth | 20 | not significantly affected |  |  | increased tumor infiltration | increased survival | did not seem to induce a significant tumor response | significantly increased | allowed the recruitment
